System: freshly isolated mononuclear cells from AML samples
Assay: Ex vivo functional drug screen (MTS viability, AUC) on primary AML samples, compared by mutation or clinical group
Assay type: cell-based, human
Description: This panel contained graded concentrations of a drugs with activity against two-thirds of the tyrosine kinome as well as other non-tyrosine kinase pathways, including MAPKs, PI3K/AKT/mTOR, AMPK, ATM, Aurora kinases, CAMKs, CDKs, GSK3a/b, IκK, PKA, PKC, PLK1, and RAF. In addition, the library contained small molecule inhibitors with activity against the BCL2 family, BRD4, Hedgehog, HSP90, NOTCH/gamma-secretase, proteasome, survivin, STAT3, and WNT/beta-catenin. Drug sensitivity patterns were analyzed with respect to clinical and genetic features of tumors. We compared the average area-under-the curve (AUC) values for each drug between the de novo and transformed samples via a series of single factor ANOVAs. […] In addition, we analyzed the concordance of drug sensitivity patterns with respect to predicted target gene, gene family, or pathway for each drug. […] To create a global view of overall sensitivity or resistance of each case, we generated a heatmap of binary sensitive/resistant calls for each sample to each drug.
Correlation of drug sensitivity with mutational events was performed by assessing the range of sensitivity of cases with mutation of an individual gene (as well as co-occurring mutational events) versus cases with wild type sequence for that same gene. […] The difference in average drug sensitivity of mutant versus wild type cases for each drug/mutation pair was plotted on the horizontal axis of a volcano plot with a test for statistical significance of the comparison plotted on the vertical axis (corrected for multiple comparison false discovery rate^42; FIG. 4). […] To aid in discovery of potential mutational biomarkers of drug sensitivity, we plotted volcano plots that were specific to each individual drug (versus all possible mutational events) and for each individual gene (versus all possible drugs tested).
Ex vivo drug screens were performed on freshly isolated mononuclear cells from AML samples as previously described^41.
Ex vivo functional drug screens were performed on freshly isolated mononuclear cells from AML samples. […] Drug plates were created using inhibitors purchased from LC Laboratories and Selleck Chemicals and master stocks were reconstituted in DMSO and stored at −80° C. […] DMSO control wells and positive control wells containing a drug combination of Flavopiridol, Staurosporine and Velcade were placed on each plate, with the final concentration of DMSO ≤0.1% in all wells. Daughter plates were created using a V&P Scientific 384-well pin tool head operated by the Caliper Sciclone ALH 3000 and equipped with 0.457 mm diameter, 30 nanoliter, slotted stainless steel pins (cat num: FP1NS30). Daughter and destination plates were sealed with pealable thermal seals using a PlateLoc thermal sealer. Destination plates were stored at −20° C. for no more than three months and thawed immediately before use. Primary mononuclear cells were plated across single-agent inhibitor panels within 24 h of collection. […] After 3 d of culture at 37° C. in 5% CO2, MTS reagent (CellTiter96 AQueous One; Promega) was added, optical density was measured at 490 nm, and raw absorbance values were adjusted to a reference blank value and then used to determine cell viability (normalized to untreated control wells).
A given sample was run on one or more panels and within each panel, the majority of drugs were run without within-panel replicates. […] An additional set of ‘curve-free’ AUCs was computed for sample-inhibitor pairs run on multiple panels.
Based on the methodology used in our prior drug combination study^36, a probit regression was fit to all possible run groups using the model: (normalized_viability/100)˜1+log 10(concentration) Where for all groups there were N=7 dose-response measurements. The summary measures of curve fit were inspected and cutoffs were devised removing all runs with an AIC >12 and deviance >2.

Compound: C=CC(=O)Nc1cc2c(Nc3ccc(F)c(Cl)c3)ncnc2cc1OCCCN1CCOCC1 [canertinib]
- drug sensitivity mutant vs wild type (average difference in AUC; top left quadrant of volcano plot) (FLT3_ITD): canertinib
- drug sensitivity mutant vs wild type (average difference in AUC; top left quadrant of volcano plot) (FLT3_ITD:TET2): canertinib
- drug sensitivity mutant vs wild type (average difference in AUC; top left quadrant of volcano plot) (FLT3_ITD_IHD2): canertinib
- drug sensitivity mutant vs wild type (average difference in AUC; top left quadrant of volcano plot) (NPM1:FLT3_ITD): canertinib
- drug sensitivity mutant vs wild type (average difference in AUC; top left quadrant of volcano plot) (SMC1A): canertinib

Compound: Nc1cccc2c1CN(C1CCC(=O)NC1=O)C2=O (stereo not drawn) [Lenalidomide]
- drug sensitivity mutant vs wild type (average difference in AUC; top left quadrant of volcano plot) (NPM1): Lenalidomide
- drug sensitivity mutant vs wild type (average difference in AUC; top left quadrant of volcano plot) (NPM1:SRSF2): lenalidomide

Compound: CCn1c(-c2nonc2N)nc2c(C#CC(C)(C)O)ncc(OC[C@H]3CCCNC3)c21 [GSK690693]
- drug sensitivity mutant vs wild type (average difference in AUC; top left quadrant of volcano plot) (MLLT3.KMT2A): GSK690693

Compound: COc1ccc(COc2ccc(Cc3cnc(N)nc3N)cc2OC)cc1 [GW-2580]
- drug sensitivity mutant vs wild type (average difference in AUC; top left quadrant of volcano plot) (IDH2): GW-2580
- drug sensitivity mutant vs wild type (average difference in AUC; top left quadrant of volcano plot) (NPM1:IDH2): GW-2580
- drug sensitivity mutant vs wild type (average difference in AUC; top left quadrant of volcano plot) (NPM1:SRSF2): gw-2580

Compound: CNC(=O)c1cc(Oc2ccc(NC(=O)Nc3ccc(Cl)c(C(F)(F)F)c3)cc2)ccn1 [Sorafenib]
- drug sensitivity mutant vs wild type (average difference in AUC; top left quadrant of volcano plot) (DNMT3A): Sorafenib
- drug sensitivity mutant vs wild type (average difference in AUC; top left quadrant of volcano plot) (NPM1): Sorafenib
- drug sensitivity mutant vs wild type (average difference in AUC; top left quadrant of volcano plot) (NPM1:DNMT3A): Sorafenib
- drug sensitivity mutant vs wild type (average difference in AUC; top left quadrant of volcano plot) (NPM1:IDH2): sorafenib
- drug sensitivity mutant vs wild type (average difference in AUC; top left quadrant of volcano plot) (NPM1:SRSF2): sorafenib
- drug sensitivity mutant vs wild type (average difference in AUC; top left quadrant of volcano plot) (NPM1:TET2): Sorafenib

Compound: Cc1cc(Nc2nc(N[C@@H](C)c3ncc(F)cn3)ncc2Cl)n[nH]1 [AZD1480]
- drug sensitivity mutant vs wild type (average difference in AUC; top left quadrant of volcano plot) (NPM1:SRSF2:IDH2): AZD1480

Compound: COc1cc(N2CCC(N3CCN(C)CC3)CC2)ccc1Nc1ncc(Cl)c(Nc2ccccc2S(=O)(=O)C(C)C)n1 [NVP-TAE684]
- drug sensitivity mutant vs wild type (average difference in AUC; top left quadrant of volcano plot) (FLT3_ITD): NVP-TAE684
- drug sensitivity mutant vs wild type (average difference in AUC; top left quadrant of volcano plot) (FLT3_ITD:DNMT3A): NVP-TAE684
- drug sensitivity mutant vs wild type (average difference in AUC; top left quadrant of volcano plot) (FLT3_ITD:FLT3): nvp-TAE684
- drug sensitivity mutant vs wild type (average difference in AUC; top left quadrant of volcano plot) (FLT3_ITD:RUNX1): nvp-TAE684
- drug sensitivity mutant vs wild type (average difference in AUC; top left quadrant of volcano plot) (FLT3_ITD:TET2): nvp-tae684
- drug sensitivity mutant vs wild type (average difference in AUC; top left quadrant of volcano plot) (FLT3_ITD_IHD2): Nvp-TAE684
- drug sensitivity mutant vs wild type (average difference in AUC; top left quadrant of volcano plot) (IDH2): NVP-TAE684
- drug sensitivity mutant vs wild type (average difference in AUC; top left quadrant of volcano plot) (IDH2:FLT3): NVP-TAE684
- drug sensitivity mutant vs wild type (average difference in AUC; top left quadrant of volcano plot) (NPM1): NVP-TAE684
- drug sensitivity mutant vs wild type (average difference in AUC; top left quadrant of volcano plot) (NPM1:FLT3): NVP-TAE684
- drug sensitivity mutant vs wild type (average difference in AUC; top left quadrant of volcano plot) (NPM1:FLT3_ITD): nvp-tae684
- drug sensitivity mutant vs wild type (average difference in AUC; top left quadrant of volcano plot) (NPM1:FLT3_ITD:DNMT3A): NVP-TAE684
- drug sensitivity mutant vs wild type (average difference in AUC; top left quadrant of volcano plot) (NPM1:IDH2): NVP-TAE684
- drug sensitivity mutant vs wild type (average difference in AUC; top left quadrant of volcano plot) (NPM1:SRSF2): nvp-TAE684
- drug sensitivity mutant vs wild type (average difference in AUC; top left quadrant of volcano plot) (NPM1:SRSF2:IDH2): NVP-

Compound: O=c1cc(-c2cccc3c2Sc2ccccc2S3)oc(N2CCOCC2)c1 [KU-55933]
- drug sensitivity mutant vs wild type (average difference in AUC; top left quadrant of volcano plot) (ZRSR2): KU-55933

Compound: COc1cc2c(Oc3ccc(NC(=O)C4(C(=O)Nc5ccc(F)cc5)CC4)cc3F)ccnc2cc1OCCCN1CCOCC1 [Foretinib]
- drug sensitivity mutant vs wild type (average difference in AUC; top left quadrant of volcano plot) (FLT3): Foretinib (XL880)
- drug sensitivity mutant vs wild type (average difference in AUC; top left quadrant of volcano plot) (FLT3_ITD:TET2:DNMT3A): Foretinib
- drug sensitivity mutant vs wild type (average difference in AUC; top left quadrant of volcano plot) (FLT3_ITD:WT1): foretinib
- drug sensitivity mutant vs wild type (average difference in AUC; top left quadrant of volcano plot) (IDH2): Foretinib
- drug sensitivity mutant vs wild type (average difference in AUC; top left quadrant of volcano plot) (NPM1): Foretinib
- drug sensitivity mutant vs wild type (average difference in AUC; top left quadrant of volcano plot) (NPM1:DNMT3A): foretinib
- drug sensitivity mutant vs wild type (average difference in AUC; top left quadrant of volcano plot) (NPM1:FLT3): Foretinib
- drug sensitivity mutant vs wild type (average difference in AUC; top left quadrant of volcano plot) (NPM1:FLT3_ITD): foretinib
- drug sensitivity mutant vs wild type (average difference in AUC; top left quadrant of volcano plot) (NPM1:FLT3_ITD:DNMT3A): foretinib
- drug sensitivity mutant vs wild type (average difference in AUC; top left quadrant of volcano plot) (NPM1:SRSF2): Foretinib
- drug sensitivity mutant vs wild type (average difference in AUC; top left quadrant of volcano plot) (SMC1A): foretinib

Compound: C[C@@H](Oc1cc(-c2cnn(C3CCNCC3)c2)cnc1N)c1c(Cl)ccc(F)c1Cl [Crizotinib]
- drug sensitivity mutant vs wild type (average difference in AUC; top left quadrant of volcano plot) (BCOR): Crizotinib
- drug sensitivity of mutant cases (BCOR mutation alone): did show sensitivity
- drug sensitivity mutant vs wild type (average difference in AUC; top left quadrant of volcano plot) (FLT3_ITD): crizotinib
- drug sensitivity mutant vs wild type (average difference in AUC; top left quadrant of volcano plot) (FLT3_ITD:SRSF2): crizotinib
- drug sensitivity mutant vs wild type (average difference in AUC; top left quadrant of volcano plot) (IDH2): Crizotinib
- drug sensitivity mutant vs wild type (average difference in AUC; top left quadrant of volcano plot) (NPM1:CEBPA): Crizotinib
- drug sensitivity mutant vs wild type (average difference in AUC; top left quadrant of volcano plot) (NPM1:FLT3_ITD): crizotinib
- drug sensitivity mutant vs wild type (average difference in AUC; top left quadrant of volcano plot) (SMC1A): crizotinib
- drug sensitivity mutant vs wild type (average difference in AUC; top left quadrant of volcano plot) (SRSF2:IDH2): Crizotinib

Compound: CC[C@H](CO)Nc1nc(NCc2ccccc2)c2ncn(C(C)C)c2n1 [Roscovitine]
- drug sensitivity mutant vs wild type (average difference in AUC; top left quadrant of volcano plot) (FLT3_ITD): roscovitine
- drug sensitivity mutant vs wild type (average difference in AUC; top left quadrant of volcano plot) (NPM1:IDH1): roscovitine
- drug sensitivity mutant vs wild type (average difference in AUC; top left quadrant of volcano plot) (ZRSR2): Roscovitine

Compound: Cn1c(=O)n(-c2ccc(C(C)(C)C#N)cc2)c2c3cc(-c4cnc5ccccc5c4)ccc3ncc21 [BEZ2345]
- drug sensitivity mutant vs wild type (average difference in AUC; top left quadrant of volcano plot) (RUNX1): BEZ2345
- correlation of mutation with drug sensitivity (mutation of RUNX1): correlated with sensitivity

Compound: C[C@H](NC(=O)Cc1cc(F)cc(F)c1)C(=O)N[C@@H]1C(=O)N(C)c2ccccc2-c2ccccc21 [DBZ, N-[(1S)-2-[[(7S)-6,7-Dihydro-5-methyl-6-oxo-5H-dibenz[b,d]azepin-7-yl]amino]-1-methyl-2-oxoethyl]-3,5-difluorobenzeneacetamide]
- drug sensitivity mutant vs wild type (average difference in AUC; top left quadrant of volcano plot) (FLT3_ITD:IDH1): DBZ
- drug sensitivity mutant vs wild type (average difference in AUC; top left quadrant of volcano plot) (IDH2): DBZ
- drug sensitivity mutant vs wild type (average difference in AUC; top left quadrant of volcano plot) (NPM1): DBZ
- drug sensitivity mutant vs wild type (average difference in AUC; top left quadrant of volcano plot) (NPM1:IDH2): DBZ
- drug sensitivity mutant vs wild type (average difference in AUC; top left quadrant of volcano plot) (NPM1:SRSF2): DBZ
- drug sensitivity mutant vs wild type (average difference in AUC; top left quadrant of volcano plot) (NPM1:SRSF2:IDH2): DBZ

Compound: C[C@@H]1CCN(C(=O)CC#N)C[C@@H]1N(C)c1ncnc2[nH]ccc12 [Tofacitinib]
- sensitivity to JAK kinase inhibitors, mutant versus wild type (average AUC difference, one-way ANOVA) (BCOR mutation alone or co-mutation of BCOR with DNMT3A or SRSF2): no difference in sensitivity
- drug sensitivity mutant vs wild type (average difference in AUC; top left quadrant of volcano plot) (ZRSR2): Tofacitinib
- sensitivity to JAK kinase inhibitors, mutant versus wild type (average AUC difference, one-way ANOVA) (co-mutation of BCOR with RUNX1): increased sensitivity

Compound: Cn1c(Nc2ccc(C(F)(F)F)cc2)nc2cc(Oc3ccnc(-c4ncc(C(F)(F)F)[nH]4)c3)ccc21 [RAF265, 1-methyl-5-((2-(5-(trifluoromethyl)-1H-imidazol-2-yl)pyridin-4-yl)oxy)-N-(4-(trifluoromethyl)phenyl)-1H-benzo[d]imidazol-2-amine]
- drug sensitivity mutant vs wild type (average difference in AUC; top left quadrant of volcano plot) (BCOR): RAF265
- drug sensitivity mutant vs wild type (average difference in AUC; top left quadrant of volcano plot) (WT1): RAF265

Compound: Cc1ccc(NC(=O)c2ccc(CN3CCN(C)CC3)cc2)cc1Nc1nc(-c2cccnc2)cs1 [Masitinib]
- drug sensitivity mutant vs wild type (average difference in AUC; top left quadrant of volcano plot) (FLT3_ITD:TET2): masitinb
- drug sensitivity mutant vs wild type (average difference in AUC; top left quadrant of volcano plot) (FLT3_ITD_IHD2): masitinib
- drug sensitivity mutant vs wild type (average difference in AUC; top left quadrant of volcano plot) (IDH2): Masitinib
- drug sensitivity mutant vs wild type (average difference in AUC; top left quadrant of volcano plot) (NPM1:SRSF2): Masitinb
- drug sensitivity mutant vs wild type (average difference in AUC; top left quadrant of volcano plot) (SMC1A): Masitinib

— patent US12268690B2, “Treatments for mutations in acute myeloid leukemia” (OREGON HEALTH & SCIENCE UNIVERSITY, priority 2018, dated 2025)
